Here are results for eight compounds from US20080146669A1, “Novel Chloride Channel Pore Openers” (THE UAB RESEARCH FOUNDATION, priority 2005, published 2008).

For experiment [1], the target named is wild-type CFTR (Homo sapiens, UniProt P13569). The experiment can be described thus: Macroscopic currents in excised inside-out patches from BHK-CFTR cells. Type of experiment: biochemical. More on the design: expressed in transfected cells; provided by J. Hanrahan (McGill University). As for the experimental part: Cell culture DNA constructs and transfections. Baby hamster kidney (BHK) cells stably expressing wild type human CFTR (BHK-CFTR) were provided by J. Hanrahan (McGill University). BHK-CFTR cells were cultured in Dulbecco's modified Eagle's medium (DMEM (Mediatech)) supplemented with 5% fetal bovine serum (FBS) and 1 mM penicillin-streptomycin. The growth media for the BHK-CFTR cells also contained 0.5 mM methotrexate to maintain selection for CFTR-expressing cells (22). HEK-293T cells were transiently transfected with wild-type or mutant CFTR cDNA using the Lipofectamine transfection kit following manufacturer's recommendations (Invitrogen, Corp). HEK-293T cells were cultured in DMEM. All cells were grown on plastic coverslips for patch clamp recording and were used 2-3 days post-seeding. Electrophysiology and data analysis. Macroscopic and multi-channel currents were recorded in the excised, inside-out configuration. Patch pipettes were pulled from Corning 8161 glass to tip resistances of […] (macroscopic recordings) or 8-10 mOhm (micropatch studies). […] CFTR currents were recorded in symmetrical solution containing (in mM): 140 N-methyl-D-glucaniine-Cl, 3 MgCl2, 1 EGTA and 10 TES. The pH was adjusted to 7.3. Macroscopic currents were evoked using a ramp protocol from +80 to −80 mV with a 10 sec time period. Patches were held at −80 mV or +80 mV for micropatch (multichannel) recordings. All patch clamp experiments were performed at 21-23° C. Signals from macroscopic and single channel recording were filtered at 20 and 200 Hz, respectively. Data acquisition and analysis were performed using pCLAMP8 and pCLAMP9 software (Axon Instruments). Curve fitting for kinetic analysis was performed using Microcal Origin software. Averaged data are presented as mean +/−SEM. Statistical comparisons were made by performing unpaired t-tests unless otherwise indicated. Ussing Chamber Experiments-CFBE41o epithelial cells stably transfected with ΔF508-CFTR or transiently transfected with wild-type CFTR were cultured as electrically resistive monolayers and assayed in Ussing chambers as described (16). ΔF508-CFTR-expressing monolayers were grown at 27° C. for 2-3 days to enhance the surface expression of this temperature-sensitive mutant. A serosal-to-mucosal Cl^− gradient (120 to 1.2 mM) was imposed, followed by amiloride addition (100 μM) to block Na^+ currents. Compounds were added to both chambers at the indicated concentrations. A 3-mV voltage pulse was imposed every 100 s to monitor transepithelial resistance.
Chain of wild-type CFTR (P13569 whole entry): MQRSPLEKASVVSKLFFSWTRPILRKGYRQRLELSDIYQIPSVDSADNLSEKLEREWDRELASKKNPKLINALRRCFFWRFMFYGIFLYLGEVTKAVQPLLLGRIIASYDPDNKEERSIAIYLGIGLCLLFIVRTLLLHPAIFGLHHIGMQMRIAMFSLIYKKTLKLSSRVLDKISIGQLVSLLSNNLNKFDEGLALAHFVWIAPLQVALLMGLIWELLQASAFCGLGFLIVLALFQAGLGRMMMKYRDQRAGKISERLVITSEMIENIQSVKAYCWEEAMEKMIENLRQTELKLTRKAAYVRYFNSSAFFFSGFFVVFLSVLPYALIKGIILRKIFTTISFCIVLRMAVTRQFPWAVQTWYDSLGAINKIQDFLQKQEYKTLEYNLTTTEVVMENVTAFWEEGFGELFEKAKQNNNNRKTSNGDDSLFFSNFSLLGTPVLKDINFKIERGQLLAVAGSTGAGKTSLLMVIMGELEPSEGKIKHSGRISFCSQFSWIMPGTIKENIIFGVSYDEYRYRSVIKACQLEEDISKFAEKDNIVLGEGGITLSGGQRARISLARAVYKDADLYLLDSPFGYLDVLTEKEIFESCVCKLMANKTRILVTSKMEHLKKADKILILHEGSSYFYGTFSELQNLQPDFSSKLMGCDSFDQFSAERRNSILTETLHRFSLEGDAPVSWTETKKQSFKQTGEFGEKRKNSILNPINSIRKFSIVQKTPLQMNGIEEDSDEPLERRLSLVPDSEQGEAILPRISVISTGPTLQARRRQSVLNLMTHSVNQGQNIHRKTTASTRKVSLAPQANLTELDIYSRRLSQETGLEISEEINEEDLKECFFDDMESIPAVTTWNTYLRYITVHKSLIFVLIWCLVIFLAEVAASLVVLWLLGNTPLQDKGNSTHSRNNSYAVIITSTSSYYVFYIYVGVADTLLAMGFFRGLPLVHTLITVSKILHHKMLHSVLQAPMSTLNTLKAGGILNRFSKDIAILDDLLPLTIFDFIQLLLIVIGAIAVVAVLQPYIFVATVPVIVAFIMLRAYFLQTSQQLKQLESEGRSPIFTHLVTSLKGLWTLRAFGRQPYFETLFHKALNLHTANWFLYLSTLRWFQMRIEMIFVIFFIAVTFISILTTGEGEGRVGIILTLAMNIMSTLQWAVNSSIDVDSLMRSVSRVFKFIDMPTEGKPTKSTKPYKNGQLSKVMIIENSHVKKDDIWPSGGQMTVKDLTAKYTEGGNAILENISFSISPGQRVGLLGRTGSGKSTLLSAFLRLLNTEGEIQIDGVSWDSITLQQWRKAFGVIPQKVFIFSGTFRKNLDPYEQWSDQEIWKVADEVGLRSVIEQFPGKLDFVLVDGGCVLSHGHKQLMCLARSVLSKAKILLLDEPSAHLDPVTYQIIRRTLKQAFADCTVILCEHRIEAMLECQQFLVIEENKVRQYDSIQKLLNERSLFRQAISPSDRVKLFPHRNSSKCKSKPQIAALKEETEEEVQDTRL

In experiment [2] the target is T1, AR-S660A-CFTR (Homo sapiens, UniProt P13569, DEL708-835/S660A).
T1 construct: expressed in transfected cells; host or cells: HEK-293T, transient
T1 sequence (P13569 with tags, fused parts or gaps S660A/DEL708-835): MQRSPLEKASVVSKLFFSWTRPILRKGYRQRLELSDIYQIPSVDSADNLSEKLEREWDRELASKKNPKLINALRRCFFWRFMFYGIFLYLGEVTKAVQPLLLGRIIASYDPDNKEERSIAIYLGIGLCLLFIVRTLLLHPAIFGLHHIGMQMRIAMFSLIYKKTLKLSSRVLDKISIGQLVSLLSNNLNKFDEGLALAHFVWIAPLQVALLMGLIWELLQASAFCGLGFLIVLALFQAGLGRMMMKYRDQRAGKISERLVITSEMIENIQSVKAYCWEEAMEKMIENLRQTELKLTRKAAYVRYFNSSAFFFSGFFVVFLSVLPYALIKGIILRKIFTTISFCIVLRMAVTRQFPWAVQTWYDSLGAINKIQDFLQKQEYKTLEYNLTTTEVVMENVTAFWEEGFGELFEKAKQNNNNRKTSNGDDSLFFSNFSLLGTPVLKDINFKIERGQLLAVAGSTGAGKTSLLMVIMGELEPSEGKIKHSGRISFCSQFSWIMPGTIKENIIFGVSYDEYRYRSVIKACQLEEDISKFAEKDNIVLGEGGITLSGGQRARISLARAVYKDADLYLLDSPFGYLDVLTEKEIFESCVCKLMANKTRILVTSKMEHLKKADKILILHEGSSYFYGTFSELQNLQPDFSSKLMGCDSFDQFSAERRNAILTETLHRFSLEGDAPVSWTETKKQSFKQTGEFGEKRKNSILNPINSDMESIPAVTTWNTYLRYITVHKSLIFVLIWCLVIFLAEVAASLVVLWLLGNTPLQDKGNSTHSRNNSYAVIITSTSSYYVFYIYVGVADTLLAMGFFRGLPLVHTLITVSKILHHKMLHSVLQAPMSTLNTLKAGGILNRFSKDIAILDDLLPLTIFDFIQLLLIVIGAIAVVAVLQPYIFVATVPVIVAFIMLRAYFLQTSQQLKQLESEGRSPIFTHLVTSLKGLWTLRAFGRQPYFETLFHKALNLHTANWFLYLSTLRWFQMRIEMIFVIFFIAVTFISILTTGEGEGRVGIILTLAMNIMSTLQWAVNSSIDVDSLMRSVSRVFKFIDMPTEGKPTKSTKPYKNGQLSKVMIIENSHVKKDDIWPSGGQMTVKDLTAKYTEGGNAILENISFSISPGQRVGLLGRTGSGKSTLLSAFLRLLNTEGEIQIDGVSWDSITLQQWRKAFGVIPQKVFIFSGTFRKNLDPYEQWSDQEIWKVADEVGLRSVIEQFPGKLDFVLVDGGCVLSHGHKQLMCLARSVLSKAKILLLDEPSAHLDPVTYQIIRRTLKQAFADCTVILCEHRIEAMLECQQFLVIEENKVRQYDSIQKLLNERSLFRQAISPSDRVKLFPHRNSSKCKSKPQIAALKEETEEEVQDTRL
The experiment can be described thus: Macroscopic currents in excised HEK-293T patches, R domain deletion mutant, no PKA. It is filed as biochemical. Particulars: 50 μM. Here is the method: Cell culture DNA constructs and transfections. Baby hamster kidney (BHK) cells stably expressing wild type human CFTR (BHK-CFTR) were provided by J. Hanrahan (McGill University). BHK-CFTR cells were cultured in Dulbecco's modified Eagle's medium (DMEM (Mediatech)) supplemented with 5% fetal bovine serum (FBS) and 1 mM penicillin-streptomycin. The growth media for the BHK-CFTR cells also contained 0.5 mM methotrexate to maintain selection for CFTR-expressing cells (22). HEK-293T cells were transiently transfected with wild-type or mutant CFTR cDNA using the Lipofectamine transfection kit following manufacturer's recommendations (Invitrogen, Corp). HEK-293T cells were cultured in DMEM. All cells were grown on plastic coverslips for patch clamp recording and were used 2-3 days post-seeding. Electrophysiology and data analysis. Macroscopic and multi-channel currents were recorded in the excised, inside-out configuration. Patch pipettes were pulled from Corning 8161 glass to tip resistances of […] (macroscopic recordings) or 8-10 mOhm (micropatch studies). CFTR channels were activated following patch excision by exposure of the cytoplasmic face of the patch to catalytic subunit of protein kinase A (PKA; 110 U/ml; Promega) and Mg-ATP (1.5 mM). CFTR currents were recorded in symmetrical solution containing (in mM): 140 N-methyl-D-glucaniine-Cl, 3 MgCl2, 1 EGTA and 10 TES. […]

The target in experiment [3] is T2, ΔF508-CFTR (Homo sapiens, UniProt P13569, DEL508-508).
T2 construct: expressed in transfected cells; host or cells: HEK-293T, transient; grown at 28° C. for 24 hrs
T2 sequence (P13569 with tags, fused parts or gaps DEL508-508): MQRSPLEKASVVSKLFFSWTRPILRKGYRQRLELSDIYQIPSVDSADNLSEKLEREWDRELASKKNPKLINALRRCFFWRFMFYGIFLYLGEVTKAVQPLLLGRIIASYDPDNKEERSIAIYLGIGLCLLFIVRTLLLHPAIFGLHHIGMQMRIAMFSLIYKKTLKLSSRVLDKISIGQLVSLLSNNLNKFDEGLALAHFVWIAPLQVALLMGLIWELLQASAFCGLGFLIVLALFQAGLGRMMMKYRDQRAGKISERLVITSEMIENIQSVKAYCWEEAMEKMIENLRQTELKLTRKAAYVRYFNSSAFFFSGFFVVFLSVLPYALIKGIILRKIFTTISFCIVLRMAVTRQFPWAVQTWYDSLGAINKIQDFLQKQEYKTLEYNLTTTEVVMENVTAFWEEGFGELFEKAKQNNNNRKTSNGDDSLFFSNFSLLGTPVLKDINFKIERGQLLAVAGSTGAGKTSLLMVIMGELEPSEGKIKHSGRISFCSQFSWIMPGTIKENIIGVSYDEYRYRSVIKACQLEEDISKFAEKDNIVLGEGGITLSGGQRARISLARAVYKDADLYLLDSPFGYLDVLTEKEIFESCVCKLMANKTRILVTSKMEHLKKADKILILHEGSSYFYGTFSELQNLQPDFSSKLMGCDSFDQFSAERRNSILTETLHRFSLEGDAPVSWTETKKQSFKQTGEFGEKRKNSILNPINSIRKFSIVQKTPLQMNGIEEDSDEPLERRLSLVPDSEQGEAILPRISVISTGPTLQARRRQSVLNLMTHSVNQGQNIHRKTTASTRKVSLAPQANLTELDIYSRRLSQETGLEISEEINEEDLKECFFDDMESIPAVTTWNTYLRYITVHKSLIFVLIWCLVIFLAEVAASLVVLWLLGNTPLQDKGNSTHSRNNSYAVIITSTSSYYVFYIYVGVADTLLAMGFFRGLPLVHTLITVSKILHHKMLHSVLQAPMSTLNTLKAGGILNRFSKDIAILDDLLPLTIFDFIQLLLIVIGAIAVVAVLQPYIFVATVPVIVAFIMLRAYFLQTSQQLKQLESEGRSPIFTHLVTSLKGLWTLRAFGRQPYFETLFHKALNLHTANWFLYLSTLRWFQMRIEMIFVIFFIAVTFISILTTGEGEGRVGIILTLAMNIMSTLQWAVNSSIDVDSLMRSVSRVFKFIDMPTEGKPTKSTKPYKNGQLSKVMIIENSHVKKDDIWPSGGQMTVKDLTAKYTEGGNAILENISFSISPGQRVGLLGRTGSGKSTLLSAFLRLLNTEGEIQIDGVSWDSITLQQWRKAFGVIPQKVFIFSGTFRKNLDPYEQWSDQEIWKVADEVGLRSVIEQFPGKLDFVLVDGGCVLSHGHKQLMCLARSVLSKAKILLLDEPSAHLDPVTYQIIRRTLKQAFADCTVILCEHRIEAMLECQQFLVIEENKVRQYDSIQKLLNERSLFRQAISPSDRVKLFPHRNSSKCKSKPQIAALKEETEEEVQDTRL
The experiment can be described thus: Macroscopic currents in excised patches from temperature-corrected HEK-293T cells expressing ΔF508-CFTR. Type of experiment: biochemical. Particulars: high PKA 110 U/ml without PKI. As for the experimental part:
(§1) Cell culture DNA constructs and transfections. Baby hamster kidney (BHK) cells stably expressing wild type human CFTR (BHK-CFTR) were provided by J. Hanrahan (McGill University). BHK-CFTR cells were cultured in Dulbecco's modified Eagle's medium (DMEM (Mediatech)) supplemented with 5% fetal bovine serum (FBS) and 1 mM penicillin-streptomycin. The growth media for the BHK-CFTR cells also contained 0.5 mM methotrexate to maintain selection for CFTR-expressing cells (22). HEK-293T cells were transiently transfected with wild-type or mutant CFTR cDNA using the Lipofectamine transfection kit following manufacturer's recommendations (Invitrogen, Corp). HEK-293T cells were cultured in DMEM. All cells were grown on plastic coverslips for patch clamp recording and were used 2-3 days post-seeding. Electrophysiology and data analysis. Macroscopic and multi-channel currents were recorded in the excised, inside-out configuration. Patch pipettes were pulled from Corning 8161 glass to tip resistances of […] (macroscopic recordings) or 8-10 mOhm (micropatch studies). CFTR channels were activated following patch excision by exposure of the cytoplasmic face of the patch to catalytic subunit of protein kinase A (PKA; 110 U/ml; Promega) and Mg-ATP (1.5 mM). CFTR currents were recorded in symmetrical solution containing (in mM): 140 N-methyl-D-glucaniine-Cl, 3 MgCl2, 1 EGTA and 10 TES. The pH was adjusted to 7.3. Macroscopic currents were evoked using a ramp protocol from +80 to −80 mV with a 10 sec time period. Patches were held at −80 mV or +80 mV for micropatch (multichannel) recordings. All patch clamp experiments were performed at 21-23° C. Signals from macroscopic and single channel recording were filtered at 20 and 200 Hz, respectively. Data acquisition and analysis were performed using pCLAMP8 and pCLAMP9 software (Axon Instruments). Curve fitting for kinetic analysis was performed using Microcal Origin software. Averaged data are presented as mean +/−SEM. Statistical comparisons were made by performing unpaired t-tests unless otherwise indicated. Ussing Chamber Experiments-CFBE41o epithelial cells stably transfected with ΔF508-CFTR or transiently transfected with wild-type CFTR were cultured as electrically resistive monolayers and assayed in Ussing chambers as described (16). ΔF508-CFTR-expressing monolayers were grown at 27° C. for 2-3 days to enhance the surface expression of this temperature-sensitive mutant. A serosal-to-mucosal Cl^− gradient (120 to 1.2 mM) was imposed, followed by amiloride addition (100 μM) to block Na^+ currents. Compounds were added to both chambers at the indicated concentrations. A 3-mV voltage pulse was imposed every 100 s to monitor transepithelial resistance.

The target of experiment [4] is T3, R347D-CFTR (Homo sapiens, UniProt P13569, R347D).
T3 construct: expressed in transfected cells; host or cells: HEK-293T, transient
T3 sequence (P13569 whole entry R347D): as the sequence (P13569 whole entry) above, with R347D counted along it
The experiment can be described thus: Macroscopic currents in excised patches from HEK-293T cells transiently transfected with R347D-CFTR. It is filed as biochemical.
Procedure: HEK-293T cells were transiently transfected with wild-type or mutant CFTR cDNA using the Lipofectamine transfection kit following manufacturer's recommendations (Invitrogen, Corp). HEK-293T cells were cultured in DMEM. All cells were grown on plastic coverslips for patch clamp recording and were used 2-3 days post-seeding. […] Macroscopic and multi-channel currents were recorded in the excised, inside-out configuration. Patch pipettes were pulled from Corning 8161 glass to tip resistances of 1.5-3.0 mOhm (macroscopic recordings) or 8-10 mOhm (micropatch studies). CFTR channels were activated following patch excision by exposure of the cytoplasmic face of the patch to catalytic subunit of protein kinase A (PKA; 110 U/ml; Promega) and Mg-ATP (1.5 mM). CFTR currents were recorded in symmetrical solution containing (in mM): 140 N-methyl-D-glucaniine-Cl, 3 MgCl2, 1 EGTA and 10 TES. The pH was adjusted to 7.3. Macroscopic currents were evoked using a ramp protocol from +80 to −80 mV with a 10 sec time period. Patches were held at −80 mV or +80 mV for micropatch (multichannel) recordings. All patch clamp experiments were performed at 21-23° C. Signals from macroscopic and single channel recording were filtered at 20 and 200 Hz, respectively. Data acquisition and analysis were performed using pCLAMP8 and pCLAMP9 software (Axon Instruments). […]

Experiment [5] concerns the target T4, G551D-CFTR (Homo sapiens, UniProt P13569, G551D).
T4 construct: expressed in transfected cells; host or cells: HEK-293T, transient
The experiment can be described thus: Macroscopic currents in excised patches from HEK-293T cells expressing G551D-CFTR. Type of experiment: biochemical. Here is the method:
as §1, with “Ussing Chamber Experiments-CFBE41o epithelial cells stably transfected with ΔF508-CFTR or transiently transfected with wild-type CFTR were cultured as electrically resistive monolayers and assayed in Ussing chambers as described (16). ΔF508-CFTR-expressing monolayers were grown at 27° C. for 2-3 days to enhance the surface expression of this temperature-sensitive mutant. A serosal-to-mucosal Cl^− gradient (120 to 1.2 mM) was imposed, followed by amiloride addition (100 μM) to block Na^+ currents. Compounds were added to both chambers at the indicated concentrations. A 3-mV voltage pulse was imposed every 100 s to monitor transepithelial resistance.” left out

Experiment [6] concerns CFTR-minus cells. The experiment can be described thus: Currents across patches excised from CFTR-minus (untransfected) cells. Type of experiment: biochemical. As for the experimental part: as §1
The subject of experiment [7] is AF508-CFTR. To be noted: tissue culture cells and mice; reported by Egan et al. (12); cited from earlier work.
For experiment [8], the target named is T2, ΔF508-CFTR. Put plainly: Ussing chamber transepithelial chloride currents, temperature-corrected ΔF508-CFTR CFBE41o- monolayers. Type of experiment: cell-based. Particulars: 1 μM compound with 1 μM forskolin; N=8-12. Here is the method: as §1

T4 sequence (P13569 whole entry G551D): as the sequence (P13569 whole entry) above, with G551D counted along it

In the case of `NC(CCc1ccccc1)C(=O)O` (stereo not drawn) [APB, reference compound], the “stimulation of thiolated CFTR channels” value in experiment [1] (400 μM, same conditions as FIG. 1A) is on record as “fails to stimulate”.
Regarding `O=C(O)c1ccccc1Nc1ccccc1` [DPC, reference compound], in experiment [1] (0.5 mM), the “increased CFTR currents, thiolated channels” value is “neither”.
As for `O=C(O)c1cc([N+](=O)[O-])ccc1NCCCc1ccccc1` [NPPB, 5-nitro-2-(3-phenylpropyl-amino)-benzoic acid, reference compound], the “effect on currents in the absence of PKA” value in experiment [2] is “markedly stimulate”. Moreover, in experiment [3] (100 μM), the “effect on ΔF508-CFTR macroscopic currents” value is recorded as “dramatically stimulated”. Further, the “stimulation of R347D-CFTR currents at depolarizing potentials compared with wild type” value in experiment [4] (all levels of phosphorylation) was “to a greater extent than for wild type CFTR”. Further, the “effect on currents of moderately phosphorylated R347D-CFTR channels” value in experiment [4] (low doses, high PKA followed by PKI) is given as “stimulates currents in both directions”. Moreover, the “effect on G551D-CFTR activity” value in experiment [5] (200-400 μM) is reported as “markedly stimulated”. Moreover, in experiment [5] (NPPB titration, wild type activated with low PKA), the “concentration dependence of G551D-CFTR activation compared to the wild type channel” value is recorded as “appreciable shift toward higher concentrations”. Also, the “effect on macroscopic current of thiolated (glutathionylated) CFTR channels” value in experiment [1] (200 μM, high PKA 110 U/ml, 1.5 mM MgATP, PKI, diamide/GSH 20 μM) is listed as “a large increase in current at depolarizing voltages”. In experiment [1] (5-300 μM, high PKA followed by PKI, seven experiments), the “effect on currents of moderately phosphorylated wild-type channels” value is reported as “voltage-dependent block at all doses”. Also, in experiment [1] (30-230 μM, low PKA 2 U/ml followed by PKI), the “effect on currents of poorly phosphorylated, not thiolated CFTR channels” value is on record as “stimulated CFTR currents at depolarizing potentials”. Besides, the “effect on currents of highly phosphorylated CFTR channels” value in experiment [1] (continuous high PKA 110 U/ml without PKI) is recorded as “Only voltage-dependent block”. In addition, the “effect on currents of poorly phosphorylated CFTR channels at higher concentrations” value in experiment [1] (higher concentrations of NPPB, low PKA then PKI) was “block was observed at all recording potentials”. Also, the “current induced at depolarizing potential in patches excised from CFTR-minus cells” value in experiment [6] is “absent”. Besides, in experiment [6] (untransfected HEK-293T), the “effect on currents across a patch from untransfected HEK-293T cells” value is reported as “neither”.
As for `NS(=O)(=O)c1cc([N+](=O)[O-])ccc1NCCCc1ccccc1` [NPPB-sulf], the “effect on CFTR channel activity” value in experiment [1] (100 μM, data not shown) was “weak effect”.
Take `N#CS` [SCN^−, reference compound]: the “increased CFTR currents, thiolated channels” value in experiment [1] (10 mM) is “neither”.
In the case of `COc1cc(/C=C/C(=O)CC(=O)/C=C/c2ccc(O)c(OC)c2)ccc1O` [curcumin], the “effect on ΔF508-CFTR macroscopic currents” value in experiment [3] (10 μM) is listed as “dramatically stimulated”. In experiment [1], the “time course and reversibility of the stimulation of CFTR current” value is “transient”; the “voltage dependence of the stimulation of CFTR current” value was “voltage-independent”. The “effect on moderately phosphorylated CFTR channels” value in experiment [1] (0.5-40.5 μM, six experiments) was “stimulates moderately phosphorylated CFTR channels”. Moreover, in experiment [7], the “biosynthetic maturation and functional correction of the ΔF508-CFTR mutant” value is “promotes the biosynthetic maturation and functional correction”.
As for `O=c1c(-c2ccc(O)cc2)coc2cc(O)cc(O)c12` [genistein, reference compound], in experiment [8], the “potentiation of the forskolin effect on ΔF508-CFTR transepithelial currents” value is “failed to potentiate the forskolin response”.
Turning to `COc1ccc(Cl)cc1C(=O)NCCc1ccc(S(=O)(=O)NC(=O)NC2CCCCC2)cc1` [glibenclamide], in experiment [6], the “current induced at depolarizing potential in patches excised from CFTR-minus cells” value is reported as “absent”.
